Patent US20220213092A1, “BICYCLIC PYRAZOLE BRUTON'S TYROSINE KINASE INHIBITORS” (AbbVie Inc., priority 2020, published 2022)
Each block holds one molecule with its values, some of them ahead of it.

Columns and labels:
[1] = target: T1, Phosphorylation of Y223 of BTK (Homo sapiens, UniProt Q06187); experiment: Whole blood compound screening, phosphorylation of Y223 site of BTK (MSD assay); type: cell-based; details: healthy human whole blood, 2 hours at 37° C., 3 separate donors; read-out: WB BTK-pY223 EC50
T1 construct: host or cells: healthy human whole blood, 3 donors
T1 sequence (Q06187 whole entry): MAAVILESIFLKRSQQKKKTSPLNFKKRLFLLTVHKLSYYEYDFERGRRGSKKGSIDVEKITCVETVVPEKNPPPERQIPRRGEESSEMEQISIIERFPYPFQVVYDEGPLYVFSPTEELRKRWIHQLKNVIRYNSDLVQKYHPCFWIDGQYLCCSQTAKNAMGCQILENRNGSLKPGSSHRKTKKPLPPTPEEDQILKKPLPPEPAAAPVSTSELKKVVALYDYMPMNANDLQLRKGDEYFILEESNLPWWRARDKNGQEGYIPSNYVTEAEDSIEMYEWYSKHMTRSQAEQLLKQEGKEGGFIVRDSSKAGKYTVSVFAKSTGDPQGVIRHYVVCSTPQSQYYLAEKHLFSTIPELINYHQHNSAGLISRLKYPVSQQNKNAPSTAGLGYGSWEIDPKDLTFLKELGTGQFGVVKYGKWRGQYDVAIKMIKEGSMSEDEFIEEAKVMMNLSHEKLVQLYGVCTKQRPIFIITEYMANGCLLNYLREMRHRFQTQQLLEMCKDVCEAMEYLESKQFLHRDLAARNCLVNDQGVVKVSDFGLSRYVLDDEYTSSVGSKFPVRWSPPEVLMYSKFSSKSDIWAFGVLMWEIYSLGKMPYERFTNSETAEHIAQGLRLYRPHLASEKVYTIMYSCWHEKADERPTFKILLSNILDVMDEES
Experimental: Healthy human whole blood (WB) was collected from […]™ Technologies or […]® in sodium heparinized tubes. Whole blood was stored at ambient temperature to avoid coagulation. Each compound was tested in 3 separate donors. Compound stock solutions (10 mM) were used to generate dose titration (8 concentrations, starting concentration 10 μM, 1:4 dilution) in appropriate volume of dimethyl sulfoxide (0.2%). Whole blood was incubated with compounds in 96-well plates for 2 hours in tissue culture incubators at 37° C. under a 5% CO2 atmosphere. The whole blood was lysed in equal volume of lysis buffer (Cell Signaling Technology®, Danvers, Mass.) containing complete protease inhibitor tablet, PhosSTOP™ tablet, sodium orthovanadate and sodium fluoride and phenylmethanesulfonyl fluoride solution. The lysed whole blood was then frozen at −80° C. for overnight.
Phosphorylation of Y223 of BTK was measured using an MSD assay (Meso Scale Diagnostics, LLC, Rockville, Md.). The thawed lysed whole blood was incubated with the capturing antibody rabbit anti-human BTK (D3H5) (Cell Signaling Technology, Danvers, Mass.) at 4° C. overnight. After washing out the unbound samples, the detection antibody biotinylated rabbit anti-pY223-BTK(D9T6H) (Cell Signaling Technology®, Danvers, Mass.) was added to the plates. After washing out the unbound antibodies, SULFO-TAG Streptavidin (Meso Scale Diagnostics, LLC, Rockville, Md.) was used for detection on Meso Sector S600 (Meso Scale Diagnostics, LLC, Rockville, Md.).
The EC50 values were determined using software from Dotmatics. The activity of exemplary compounds is illustrated below.

[2] = target: T2, BTK (Homo sapiens, UniProt Q06187); experiment: BTK kinase electrophoretic mobility shift assay (MSA); type: biochemical; details: 50 μM ATP, 0.5 nM BTK enzyme (Nanosyn-293HEK, WT), 3 hours at 25° C.; all examples except 50, 51, 62 and 63; read-out: BTK IC50
T2 construct: purchased Nanosyn, Santa Clara, Calif; host or cells: 293HEK
T2 sequence (Q06187 whole entry): as above
Experimental: Kinase activity, unless otherwise indicated, was measured in vitro using an electrophoretic mobility shift assay (MSA). The phosphorylation of a peptide substrate by BTK and other kinases was measured. The kinase reactions were assembled in a total volume of 25 μL per well in 384 well plates. The following was added to each well: compound buffer (or control); enzyme buffer; and substrate buffer, as further described below.
The terminated reactions were analyzed using a 12 channel LABCHIP® 3000 microfluidic detection instrument (available from Caliper Life Sciences, Waltham, Mass.). […] Change in the relative fluorescence intensity of the substrate and product peaks was the parameter measured, reflecting enzyme activity. In the presence of an inhibitor, the ratio between product and substrate was altered. The signal of the product decreased, while the signal of the substrate increased. Capillary electrophoregrams (RDA acquisition files) were analyzed using HTS Well Analyzer software (available from Caliper Life Sciences, Waltham, Mass.).
Activity in each sample was determined as the product to sum ratio (PSR): P/(S+P), where P was the peak height of the product peptide and S was the peak height of the substrate peptide. For each compound, enzyme activity was measured at various concentrations (12 concentrations of compound spaced by 3× dilution intervals). Negative control samples (00 inhibition in the absence of inhibitor) and positive control samples (10000 inhibition, in the presence of 20 mM EDTA) were assembled in replicates of four and were used to calculate 00 inhibition values for each inhibitor at each concentration. Percent inhibition (Pinh) was determined using following equation: Pinh=(PSR0%−PSRinh)/(PSR0%−PSR100%)*100, where PSRinh was the product sum ratio in the presence of inhibitor, PSR0% was the average product sum ratio in the absence of inhibitor and PSR100% was the average product sum ratio in 100%−inhibition control samples.
The IC50 values of inhibitors were determined by 4 parameter sigmoidal dose response model fitting of the inhibition curves (Pinh versus inhibitor concentration) using XLfit® 4 software (available from IDBS, Boston, Mass.).

SMILES: C=CC(=O)N1CCC(C2CCNc3c2nn(-c2ccc(Oc4cccc(F)c4)cc2)c3C(N)=O)CC1 (stereo not shown) [Example 12, 2-[4-(3-fluorophenoxy)phenyl]-7-[1-(prop-2-enoyl)piperidin-4-yl]-4,5,6,7-tetrahydro-2H-pyrazolo[4,3-b]pyridine-3-carboxamide]
- EC50 [1]: 32.9 nM
- IC50 [2]: 0.495 nM

SMILES: C=CC(=O)N1CCC(C2CCNc3c2nn(-c2ccc(Oc4cccc(OC)c4)cc2)c3C(N)=O)CC1 (stereo not shown) [Example 15, 2-[4-(3-methoxyphenoxy)phenyl]-7-[1-(prop-2-enoyl)piperidin-4-yl]-4,5,6,7-tetrahydro-2H-pyrazolo[4,3-b]pyridine-3-carboxamide]
- EC50 [1]: 55.6 nM
- IC50 [2]: 0.684 nM

SMILES: C=CC(=O)N1CCC(N2CCNc3c2nn(-c2ccc(Oc4ccccc4)cc2)c3C(N)=O)CC1 [Example 16, 2-(4-phenoxyphenyl)-7-[1-(prop-2-enoyl)piperidin-4-yl]-4,5,6,7-tetrahydro-2H-pyrazolo[3,4-b]pyrazine-3-carboxamide]
- EC50 [1]: 18.3 nM
- IC50 [2]: 0.592 nM

SMILES: C=CC(=O)N1CCC(C2CCNc3c2nn(-c2ccc(Oc4cccc(C)c4)cc2)c3C(N)=O)CC1 (stereo not shown) [Example 24, 2-[4-(3-methylphenoxy)phenyl]-7-[1-(prop-2-enoyl)piperidin-4-yl]-4,5,6,7-tetrahydro-2H-pyrazolo[4,3-b]pyridine-3-carboxamide]
- EC50 [1]: 92.9 nM
- IC50 [2]: 0.735 nM

SMILES: C=CC(=O)N1CCC([C@H]2CCNc3c2nn(-c2ccc(Oc4ccc(F)cc4F)cc2)c3C(N)=O)CC1 [Example 30, (7R)-2-[4-(2,4-difluorophenoxy)phenyl]-7-[1-(prop-2-enoyl)piperidin-4-yl]-4,5,6,7-tetrahydro-2H-pyrazolo[4,3-b]pyridine-3-carboxamide]
- EC50 [1]: 45.3 nM
- IC50 [2]: 1.05 nM

SMILES: C=CC(=O)N1CCN([C@@H]2CCNc3c2nn(-c2ccc(Oc4ccc(O)cc4)cc2)c3C(N)=O)CC1 [Example 44, (7R)-2-[4-(4-hydroxyphenoxy)phenyl]-7-[4-(prop-2-enoyl)piperazin-1-yl]-4,5,6,7-tetrahydro-2H-pyrazolo[4,3-b]pyridine-3-carboxamide]
- EC50 [1]: 158 nM
- IC50 [2]: 15.4 nM

SMILES: C=CC(=O)N1CCN(C2CCNc3c2nn(-c2ccc(Oc4ccccc4C(F)(F)F)cc2)c3C(N)=O)CC1 (stereo not shown) [Example 54, 7-[4-(prop-2-enoyl)piperazin-1-yl]-2-{4-[2-(trifluoromethyl)phenoxy]phenyl}-4,5,6,7-tetrahydro-2H-pyrazolo[4,3-b]pyridine-3-carboxamide]
- EC50 [1]: 76.7 nM
- IC50 [2]: 1.19 nM

SMILES: C=CC(=O)N1CCN(C2CCNc3c2nn(-c2ccc(Oc4cccc(F)c4)cc2)c3C(N)=O)CC1 (stereo not shown) [Example 57, 2-[4-(3-fluorophenoxy)phenyl]-7-[4-(prop-2-enoyl)piperazin-1-yl]-4,5,6,7-tetrahydro-2H-pyrazolo[4,3-b]pyridine-3-carboxamide]
- EC50 [1]: 85.9 nM
- IC50 [2]: 1.76 nM

SMILES: C=CC(=O)N1CCN([C@@H]2CCNc3c2nn(-c2ccc(Oc4ccccc4C(F)(F)F)cc2)c3C(N)=O)CC1 [Example 60, (7R)-7-[4-(prop-2-enoyl)piperazin-1-yl]-2-{4-[2-(trifluoromethyl)phenoxy]phenyl}-4,5,6,7-tetrahydro-2H-pyrazolo[4,3-b]pyridine-3-carboxamide]
- EC50 [1]: 83.4 nM
- IC50 [2]: 1.42 nM

SMILES: C=CC(=O)N1CCN([C@@H]2CCNc3c2nn(-c2ccc(Oc4cccc(C#N)c4)cc2)c3C(N)=O)CC1 [Example 64, (7R)-2-[4-(3-cyanophenoxy)phenyl]-7-[4-(prop-2-enoyl)piperazin-1-yl]-4,5,6,7-tetrahydro-2H-pyrazolo[4,3-b]pyridine-3-carboxamide]
- EC50 [1]: 75 nM
- IC50 [2]: 5.58 nM

SMILES: C=CC(=O)N1CCN([C@@H]2CCNc3c2nn(-c2ccc(Oc4cccc(C(F)(F)F)c4)cc2)c3C(N)=O)CC1 [Example 65, (7R)-7-[4-(prop-2-enoyl)piperazin-1-yl]-2-{4-[3-(trifluoromethyl)phenoxy]phenyl}-4,5,6,7-tetrahydro-2H-pyrazolo[4,3-b]pyridine-3-carboxamide]
- EC50 [1]: 34.2 nM
- IC50 [2]: 0.953 nM

SMILES: C=CC(=O)N1CCN([C@@H]2CCNc3c2nn(-c2ccc(Oc4cccc(F)c4)cc2)c3C(N)=O)CC1 [Example 67, (7R)-2-[4-(3-fluorophenoxy)phenyl]-7-[4-(prop-2-enoyl)piperazin-1-yl]-4,5,6,7-tetrahydro-2H-pyrazolo[4,3-b]pyridine-3-carboxamide]
- EC50 [1]: 18.8 nM
- IC50 [2]: 0.737 nM

SMILES: C=CC(=O)N1CCN([C@@H]2CCNc3c2nn(-c2ccc(Oc4ccccc4C4CC4)cc2)c3C(N)=O)CC1 [Example 68, (7R)-2-[4-(2-cyclopropylphenoxy)phenyl]-7-[4-(prop-2-enoyl)piperazin-1-yl]-4,5,6,7-tetrahydro-2H-pyrazolo[4,3-b]pyridine-3-carboxamide]
- EC50 [1]: 96.2 nM
- IC50 [2]: 3.18 nM

The next lines start with the values.

- EC50 [1]: 1820 nM
- IC50 [2]: 65.7 nM
SMILES: C=CC(=O)N1C[C@@H]2CN(C3CCNc4c3nn(-c3ccc(Oc5ccccc5)cc3)c4C(N)=O)C[C@@H]2C1 (mixture of isomers) [Example 66, 2-(4-phenoxyphenyl)-7-[rac-(3aR,6aS)-5-(prop-2-enoyl)hexahydropyrrolo[3,4-c]pyrrol-2(1H)-yl]-4,5,6,7-tetrahydro-2H-pyrazolo[4,3-b]pyridine-3-carboxamide]

- EC50 [1]: 40.7 nM
- IC50 [2]: 0.993 nM
SMILES: C=CC(=O)N1CCN(C2CCNc3c2nn(-c2ccc(Oc4ccccc4)cc2)c3C(N)=O)CC1 (stereo not shown) [Example 3, 2-(4-phenoxyphenyl)-7-[4-(prop-2-enoyl)piperazin-1-yl]-4,5,6,7-tetrahydro-2H-pyrazolo[4,3-b]pyridine-3-carboxamide]

- EC50 [1]: 35.7 nM
- IC50 [2]: 0.331 nM
SMILES: C=CC(=O)N1CCC([C@H]2CCNc3c2nn(-c2ccc(Oc4ccccc4)cc2)c3C(N)=O)CC1 [Example 4, (7R)-2-(4-phenoxyphenyl)-7-[1-(prop-2-enoyl)piperidin-4-yl]-4,5,6,7-tetrahydro-2H-pyrazolo[4,3-b]pyridine-3-carboxamide]

- EC50 [1]: 38.2 nM
- IC50 [2]: 1.11 nM
SMILES: C=CC(=O)N1CC(N2CCNc3c2nn(-c2ccc(Oc4ccccc4)cc2)c3C(N)=O)C1 [Example 22, 2-(4-phenoxyphenyl)-7-[1-(prop-2-enoyl)azetidin-3-yl]-4,5,6,7-tetrahydro-2H-pyrazolo[3,4-b]pyrazine-3-carboxamide]

- EC50 [1]: 128 nM
- IC50 [2]: 0.884 nM
SMILES: C=CC(=O)N1[C@@H]2CC[C@H]1CN(C1CCNc3c1nn(-c1ccc(Oc4ccccc4)cc1)c3C(N)=O)C2 (stereo partly drawn) [Example 35, 2-(4-phenoxyphenyl)-7-[(1R,5S)-8-(prop-2-enoyl)-3,8-diazabicyclo[3.2.1]octan-3-yl]-4,5,6,7-tetrahydro-2H-pyrazolo[4,3-b]pyridine-3-carboxamide]

- EC50 [1]: 62.5 nM
- IC50 [2]: 1.17 nM
SMILES: C=CC(=O)N1CCN(C2CCNc3c2nn(-c2ccc(Oc4ccccc4)cc2)c3C(N)=O)C[C@@H]1C (stereo partly drawn) [Example 43, 7-[(3S)-3-methyl-4-(prop-2-enoyl)piperazin-1-yl]-2-(4-phenoxyphenyl)-4,5,6,7-tetrahydro-2H-pyrazolo[4,3-b]pyridine-3-carboxamide]

- EC50 [1]: 71.8 nM
- IC50 [2]: 1.2 nM
SMILES: C=CC(=O)N1CCN(C2CCNc3c2nn(-c2ccc(Oc4ccccc4)cc2)c3C(N)=O)CC12CC2 (stereo not shown) [Example 53, 2-(4-phenoxyphenyl)-7-[4-(prop-2-enoyl)-4,7-diazaspiro[2.5]octan-7-yl]-4,5,6,7-tetrahydro-2H-pyrazolo[4,3-b]pyridine-3-carboxamide]
